Measured values published in ChEMBL document CHEMBL1201862, “PubChem BioAssay data set” (2004).
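Five concentrations, 48 hours, 96-well plates. Here, GI50 denotes the concentration required for 50% inhibition of growth.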 Calls of active or inactive are those of the source. Cut-off read from the data, not from the text of the source: active = GI50 up to about 1.1 µM and inactive = higher.

Experiments:
Assay in all cases: inhibition of tumour cell growth, NCI panel, 48 h
[1] = system: CAKI-1
[2] = system: COLO 205
[3] = system: HCT-116
[4] = system: HCT-15
[5] = system: Hs-578T
[6] = system: MOLT-4
[7] = system: Malme-3M
[8] = system: NCI-H226
[9] = system: NCI-H522
[10] = system: NCI/ADR-RES
[11] = system: PC-3
[12] = system: SF-268
[13] = system: SF-295
[14] = system: SF-539
[15] = system: SK-MEL-28
[16] = system: SK-MEL-2
[17] = system: SR

Measured: GI50

NCCCc1ccc2oc3ccccc3c2c1
inactive: [1] 16.2 µM | [2] 17.5 µM | [3] 15.3 µM | [5] 21.3 µM | [6] 11.8 µM | [7] 17.5 µM | [8] 19.1 µM | [9] 17.1 µM | [10] 22.3 µM | [11] 18.7 µM | [12] 19.5 µM | [13] 18.5 µM | [14] 21.2 µM | [15] 17.8 µM | [16] 20.4 µM | [17] 16.2 µM
17.6 µM: [4]

Cc1ccc(/C=N\NC(=O)c2ccncc2)s1
> 100 µM: [4]
inactive: [1] > 100 µM | [2] > 100 µM | [3] > 100 µM | [5] > 100 µM | [6] > 100 µM | [7] > 100 µM | [8] > 100 µM | [9] > 100 µM | [10] > 100 µM | [11] > 100 µM | [12] > 100 µM | [13] > 100 µM | [14] > 100 µM | [15] > 100 µM | [16] > 100 µM | [17] > 100 µM

Cc1cc(C#N)c[n+](C)c1
inactive: [1] > 100 µM | [2] > 100 µM | [3] > 100 µM | [5] > 100 µM | [6] > 100 µM | [7] > 100 µM | [8] > 100 µM | [9] > 100 µM | [10] > 100 µM | [11] > 100 µM | [12] > 100 µM | [13] > 100 µM | [14] > 100 µM | [15] > 100 µM | [16] > 100 µM | [17] > 100 µM
> 100 µM: [4]

CCCCNc1nc(NC2OCC(OC(C)=O)C(OC(C)=O)C2OC(C)=O)c(N=O)c(=O)n1C (centres undefined)
> 10 µM: [4]
inactive: [1] > 10 µM | [2] > 10 µM | [3] > 10 µM | [5] > 10 µM | [6] > 10 µM | [7] > 10 µM | [8] > 10 µM | [9] > 10 µM | [10] > 10 µM | [11] > 10 µM | [12] > 10 µM | [13] > 10 µM | [14] > 10 µM | [15] > 10 µM | [16] > 10 µM | [17] > 10 µM

NC(=O)c1ncn2c(=O)n(CCl)nnc12
inactive: [1] > 100 µM | [2] 50.2 µM | [3] 28.2 µM | [5] > 100 µM | [6] > 100 µM | [7] > 100 µM | [8] > 100 µM | [9] 96.8 µM | [10] 48.9 µM | [11] > 100 µM | [12] > 100 µM | [13] > 100 µM | [14] 72.8 µM | [15] > 100 µM | [16] > 100 µM | [17] 15.4 µM
41.4 µM: [4]

Cc1ccc(C)c(N2C(=O)C(=O)c3c(C)ccc(C)c32)c1
14.2 µM: [4]
inactive: [1] 25.5 µM | [2] 34.9 µM | [3] 16.3 µM | [5] 22.4 µM | [6] 22.3 µM | [7] 20.7 µM | [8] 27.7 µM | [9] 15.5 µM | [10] 23.6 µM | [11] 23 µM | [12] 23.3 µM | [13] 22.9 µM | [14] 16.7 µM | [15] 33.5 µM | [16] 20.6 µM | [17] 15.4 µM

C[C@@]12C[C@@H](c3ccccc3O1)N1CCSC1=N2
> 100 µM: [4]
inactive: [1] > 100 µM | [2] > 100 µM | [3] > 100 µM | [5] > 100 µM | [6] 75.5 µM | [7] > 100 µM | [8] > 100 µM | [9] > 100 µM | [10] > 100 µM | [11] > 100 µM | [12] > 100 µM | [13] > 100 µM | [14] > 100 µM | [15] > 100 µM | [16] > 100 µM | [17] > 100 µM
